The values that follow come from patent publication US8828988B2 (Tetraphase Pharmaceuticals, Inc., priority 2009, dated 2014).

Structures are written as SMILES. Converted amounts (≈) assume the structure as drawn. Like-named read-outs stand apart in the source and are kept apart here.

The term MIC denotes the lowest concentration found to suppress growth. In general, MIC90 refers to the lowest concentration that inhibits either 90% of growth or 90% of the strains tested, depending on the study. Low readings indicate higher susceptibility, high ones lower susceptibility.

Assay [1] deals with Staphylococcus aureus SA101, ATCC 29213, MSSA. Put plainly: MIC assay, SA101. In kind it is cell-based.
Assay [2] relates to Staphylococcus aureus SA100, ATCC 13709, MSSA, Smith strain. Put plainly: MIC assay, SA100. The format is cell-based.
Assay [3] deals with Staphylococcus aureus SA161, HA-MRSA, tetracycline-resistant, tet(M). As to the kind of experiment: MIC assay, SA161. In kind it is cell-based.
Assay [4] concerns Staphylococcus aureus SA158, tetracycline-resistant tet(K). As to the kind of experiment: MIC assay, SA158. In kind it is cell-based. To be noted: read-out: MIC SA158 tetK.
Assay [5] concerns Enterococcus faecalis EF159, tetracycline-resistant, tet(M). Put plainly: MIC assay, EF159. The format is cell-based.
Assay [6] has as its system Streptococcus pneumoniae SP106, ATCC 49619. As to the kind of experiment: MIC assay, SP106. The format is cell-based.
In assay [7] the test system is Streptococcus pneumoniae SP160, tetracycline-resistant, tet(M). Put plainly: MIC assay, SP160. In kind it is cell-based. To be noted: read-out: MIC SP160 tetM.
The test system of assay [8] is Escherichia coli EC107, ATCC 25922. Put plainly: MIC assay, EC107. The format is cell-based.
Assay [9] has as its system Escherichia coli EC155, tetracycline-resistant, tet(A). As to the kind of experiment: MIC assay, EC155. In kind it is cell-based.
For assay [10], the system named is Acinetobacter baumannii AB110, ATCC 19606. Put plainly: MIC assay, AB110. In kind it is cell-based.
Assay [11] deals with Pseudomonas aeruginosa PA111, ATCC 27853. As to the kind of experiment: MIC assay, PA111. The format is cell-based.
Assay [12] has as its system Enterobacter cloacae EC108, ATCC 13047. As to the kind of experiment: MIC assay, EC108. In kind it is cell-based.
Assay [13] deals with Klebsiella pneumoniae KP153, tetracycline-resistant, tet(A), MDR, ESBL+. As to the kind of experiment: MIC assay, KP153. The format is cell-based. To be noted: read-out: MIC KP153 tetA.
Assay [14] concerns Enterococcus faecalis EF103, ATCC 29212. As to the kind of experiment: MIC assay, EF103. In kind it is cell-based. The note with it: Enterococcus faecalis.
The subject of assay [15] is Klebsiella pneumoniae KP109, ATCC 13883. As to the kind of experiment: MIC assay, KP109. The format is cell-based. To be noted: ATCC13883, read-out: MIC KP109 13883.
Assay [16] relates to E. coli DH10B(pBAD-tetK), expressing tet(K). As to the kind of experiment: MIC against recombinant E. coli expressing tet(K). To be noted: Escherichia coli, read-out: MIC, TetK Induced. The format is cell-based. The text has this: (§1) Constructs were transformed into E. coli DH10B for expression. Recombinant strains were pre-induced under optimized conditions with L-arabinose prior to use as inocula in CLSI standardized MIC assays.

The subject of assay [17] is E. coli DH10B(pBAD-tetM), expressing tet(M). As to the kind of experiment: MIC against recombinant E. coli expressing tet(M). In kind it is cell-based. The note with it: Escherichia coli, read-out: MIC, TetM induced.
From the text: as §1

Assay [18] relates to H. influenzae isolates (Eurofins-Medinet, recent clinical isolates). Put plainly: MIC50 and MIC90 analysis (Example 22).
Assay [19] relates to S. aureus strains collected from various geographical sources. Put plainly: MIC50 and MIC90 analysis (Example 22).
Procedure: Frozen bacterial strains were thawed and subcultured onto Mueller Hinton Broth (MHB) or other appropriate media (Streptococcus requires blood and Haemophilus requires hemin and NAD). Following incubation overnight, the strains were subcultured onto Mueller Hinton Agar and again incubated overnight. […] Isolated colonies were selected to prepare a starting inoculum equivalent to a 0.5 McFarland standard. […] Antibiotics (stored frozen, thawed and used within 3 hours of thawing) and compounds were further diluted to the desired working concentrations.
The assays were run as follows. Fifty μL of MHB was added to wells 2-12 of a 96-well plate. One hundred μL of appropriately diluted antibiotic or compound was added to well 1. Fifty μL of antibiotics or compound was removed from well 1 and added to well 2 and the contents of well 2 mixed by pipetting up and down five times. Fifty μL of the mixture in well 2 was removed and added to well 3 and mixed as above. Serial dilutions were continued in the same manner through well 12. Fifty μL was removed from well 12 so that all contained 50 μL. Fifty μL of the working inoculum was then added to all test wells. A growth control well was prepared by adding 50 μL of working inoculum and 50 μL of MHB to an empty well. The plates were then incubated at 37° C. overnight, removed from the incubator and each well was read on a plate reading mirror. The lowest concentration (MIC) of test compound that inhibited the growth of the bacteria was recorded.
MIC, MIC50 and MIC90 values were determined according to CLSI methodology. S. pneumoniae and H. influenzae isolates were obtained from Eurofins-Medinet and are recent clinical isolates. S. aureus strains were collected from various geographical sources.
The next assay relates to E. coli ATCC 25922. Put plainly: Mouse systemic infection model, E. coli septicemia. To be noted: mouse septicemia, E. coli ATCC 25922, treatment one hour post-challenge, survival after 48 hours.
Assay [20] deals with S. aureus ATCC 13709 (Smith). Put plainly: Mouse systemic infection model, S. aureus septicemia. The note with it: mouse septicemia, S. aureus ATCC 13709, intravenous treatment one hour post-challenge, survival after 48 hours.
The subject of assay [21] is E. coli S30 extract system, coupled in vitro transcription/translation, firefly luciferase readout. As to the kind of experiment: In vitro transcription/translation (TnT) assay. The format is biochemical.
Assay [22] deals with E. faecalis clinical isolates. As to the kind of experiment: MIC50, MIC90 and MIC range, panel of clinical isolates (Example 20). In kind it is cell-based. To be noted: 24 isolates, in µg/mL. The method, then: (§2) The assays were run as follows.
(§3) Both values, as well as the MIC range (the lowest and highest MIC value observed for a collection of organisms), were determined for the isolates listed in Table 3.

The subject of assay [23] is S. aureus clinical isolates. The assay is described as above. The format is cell-based. To be noted: MRSA, 30 isolates; in µg/mL. The method, then:
as §2, §3

Assay [24] relates to S. pneumoniae clinical isolates. The assay is described as above. In kind it is cell-based. The note with it: 19 isolates. The method, then: as §2, §3
The mark [25] stands for this setting: numeric values of control compounds.
[26] abbreviates: ATCC29212, read-out: MIC EF103 29212.
Setting [27] is: ATCC49619, read-out: MIC SP106 49619.
Where [28] appears, read: ATCC25922, read-out: MIC EC107 25922.
Where [29] appears, read: ATCC19606, read-out: MIC AB110 19606.
Setting [30] is: ATCC27853, read-out: MIC PA111 27853.
The mark [31] stands for this setting: ATCC13047, read-out: MIC EC108 13047.

With `CN(C)c1ccc(O)c2c1C[C@H]1C[C@H]3[C@H](N(C)C)C(O)=C(C(N)=O)C(=O)[C@@]3(O)C(O)=C1C2=O` [Mino., Minocycline, reference compound], the MIC is 0.06 µg/mL (≈ 0.131 µM) in [1] (numeric values of control compounds, read-out: MIC SA101 29213); 0.06 µg/mL (≈ 0.131 µM) in assay [2] (numeric values of control compounds, read-out: MIC SA100 13709); 8 µg/mL (≈ 17.5 µM) in assay [3] (numeric values of control compounds, read-out: MIC SA161 MRSA, tetM); 0.03 µg/mL (≈ 0.0656 µM) in assay [4] (setting [25]); 16 µg/mL (≈ 35 µM) in assay [5] (numeric values of control compounds, read-out: MIC EF159 tetM); less than 0.015 µg/mL in assay [6] (ATCC49619, numeric values of control compounds, read-out: MIC SP106 49619). Moreover, the MIC in [7] (setting [25]) stood at 2 µg/mL (≈ 4.37 µM); in assay [8] (ATCC25922, numeric values of control compounds, read-out: MIC EC107 25922), 0.5 µg/mL (≈ 1.09 µM); in assay [9] (numeric values of control compounds, read-out: MIC EC155 tetA), 8 µg/mL (≈ 17.5 µM); in assay [10] (ATCC19606, numeric values of control compounds, read-out: MIC AB110 19606), 0.06 µg/mL (≈ 0.131 µM); in assay [11] (ATCC27853, numeric values of control compounds, read-out: MIC PA111 27853) it was 16 µg/mL (≈ 35 µM); in assay [12] (ATCC13047, numeric values of control compounds, read-out: MIC EC108 13047), 2 µg/mL (≈ 4.37 µM). Moreover, the MIC in assay [13] (setting [25]) was 8 µg/mL (≈ 17.5 µM).
In the case of `CN(C)[C@@H]1C(O)=C(C(N)=O)C(=O)[C@@]2(O)C(O)=C3C(=O)c4c(O)cccc4C[C@H]3C[C@@H]12` [San., Sancycline, reference compound], the MIC amounted to 0.5 µg/mL (≈ 1.21 µM) in assay [1] (read-out: MIC SA101 29213); 1 µg/mL (≈ 2.41 µM) in assay [2] (read-out: MIC SA100 13709); 4 µg/mL (≈ 9.65 µM) in [4]; 8 µg/mL (≈ 19.3 µM) in assay [14] (setting [26]); 8 µg/mL (≈ 19.3 µM) in [5] (read-out: MIC EF159 tetM); 0.25 µg/mL (≈ 0.603 µM) in assay [6] (setting [27]). Further, the MIC in assay [7] is 8 µg/mL (≈ 19.3 µM); in assay [8] (setting [28]) it was 8 µg/mL (≈ 19.3 µM); in [9] (read-out: MIC EC155 tetA), 32 µg/mL (≈ 77.2 µM); in [10] (setting [29]), 0.25 µg/mL (≈ 0.603 µM); in [11] (setting [30]) it was more than 32 µg/mL; in assay [12] (setting [31]), 8 µg/mL (≈ 19.3 µM). The MIC in [15] came to 8 µg/mL (≈ 19.3 µM); in assay [13], 32 µg/mL (≈ 77.2 µM).
On to `CN(C)[C@@H]1C(O)=C(C(N)=O)C(=O)[C@@]2(O)C(O)=C3C(=O)c4c(O)cccc4[C@@](C)(O)[C@H]3C[C@@H]12` [Tetracycline, tetracycline, reference compound], for which the minimum inhibitory concentration (MIC) in assay [1] (Table 8, read-out: MIC S. aureus ATCC 29213) is 0.25 µg/mL (≈ 0.563 µM); in assay [1] (Table 9, read-out: MIC S. aureus ATCC 29213), 0.5 µg/mL (≈ 1.13 µM); in assay [2] (Table 12, read-out: MIC S. aureus ATCC 13709), 0.5 µg/mL (≈ 1.13 µM); in assay [3] (Table 8, read-out: MIC S. aureus MRSA, tetM), 64 µg/mL (≈ 144 µM); in [14] (ATCC29212, Table 8, read-out: MIC E. faecalis ATCC 29212), 8 µg/mL (≈ 18 µM); in [5] (Table 8, read-out: MIC E. faecalis tetM), 64 µg/mL (≈ 144 µM). The minimal inhibitory concentration (MIC) was more than 32 µg/mL in assay [5] (Table 9, read-out: MIC E. faecalis EF159 (tet)M); 0.063 µg/mL (≈ 0.142 µM) in assay [6] (ATCC49619, Table 8, read-out: MIC S. pneumoniae ATCC 49619); 0.25 µg/mL (≈ 0.563 µM) in [6] (ATCC49619, Table 9, read-out: MIC S. pneum ATCC 49619); more than 64 µg/mL in [9] (Table 8, read-out: MIC E. coli tetA); more than 32 µg/mL in assay [9] (Table 9, read-out: MIC E. coli EC155 (tet)A); more than 32 µg/mL in [16]. Moreover, the minimum inhibitory concentration (MIC) in assay [17] was more than 32 µg/mL. Further, the MIC Range in assay [18] (H. influenzae (n = 12)) was 0.25 to 16 µg/mL; in assay [19] (S. aureus (n = 20)), 0.06 to 32 µg/mL. Further, the values for the MIC50 in assay [18] (Haemophilus influenzae) and in assay [19] (Staphylococcus aureus) were 0.5 µg/mL (≈ 1.13 µM) and 0.13 µg/mL (≈ 0.293 µM), respectively. In [19] (Staphylococcus aureus), this molecule came in with an MIC90 of 0.25 µg/mL (≈ 0.563 µM). Also, the results for the PD50 (in the assay with E. coli ATCC 25922; in assay [20]) were 17.0 mg/kg and 0.35 mg/kg, respectively.
As to `CN(C)c1cc(NC(=O)CNC(C)(C)C)c(O)c2c1C[C@H]1C[C@H]3[C@H](N(C)C)C(O)=C(C(N)=O)C(=O)[C@@]3(O)C(O)=C1C2=O` [Tige., Tigecycline, reference compound], the MIC worked out at 0.06 µg/mL (≈ 0.102 µM) in [1] (read-out: MIC SA101 29213); 0.06 µg/mL (≈ 0.102 µM) in [2] (read-out: MIC SA100 13709); 0.125 µg/mL (≈ 0.213 µM) in assay [3] (read-out: MIC SA161 MRSA, tetM); 0.06 µg/mL (≈ 0.102 µM) in [4]; 0.03 µg/mL (≈ 0.0512 µM) in [14] (setting [26]); 0.06 µg/mL (≈ 0.102 µM) in assay [5] (read-out: MIC EF159 tetM). Moreover, the MIC was 0.0156 µg/mL (≈ 0.0266 µM) in assay [6] (setting [27]); 0.0156 µg/mL (≈ 0.0266 µM) in assay [7]; 0.03 µg/mL (≈ 0.0512 µM) in [8] (setting [28]); 0.5 µg/mL (≈ 0.854 µM) in [9] (read-out: MIC EC155 tetA); 0.25 µg/mL (≈ 0.427 µM) in [10] (setting [29]); 8 µg/mL (≈ 13.7 µM) in assay [11] (setting [30]). In addition, the minimal inhibitory concentration (MIC) in assay [12] (setting [31]) worked out at 0.25 µg/mL (≈ 0.427 µM); in [15], 0.125 µg/mL (≈ 0.213 µM); in assay [13] it was 1 µg/mL (≈ 1.71 µM). In [21], the “TnT IC50” value was found to be 0.3 µg/mL.
Regarding `CN(C)c1cc(NC(=O)CNC(C)(C)C)c(O)c2c1C[C@H]1C[C@H]3[C@H](N(C)C)C(O)=C(C(N)=O)C(=O)[C@@]3(O)C(O)=C1C2=O` [tigecycline, reference compound], the minimum inhibitory concentration (MIC) in assay [2] (read-out: MIC S. aureus ATCC 13709) amounted to 0.13 µg/mL (≈ 0.222 µM); in [8] (ATCC25922, read-out: MIC E. coli ATCC 25922) it was 0.13 µg/mL (≈ 0.222 µM). For the same molecule, the “MIC Range” value in assay [22] is “<=0.016-0.13”; in [23] it was 0.063-0.25; in [24] it was “≦0.016”. The “TnT IC50” value in assay [21] is 0.47 µg/mL. The results for the PD50 (in the assay on E. coli ATCC 25922; in assay [20]) were 2.1 mg/kg and 0.35 mg/kg, respectively.
